Assay results reported in US20190127314A1, “HOMOVANILLIC ACID ESTER FOR REDUCING OR INHIBITING FATTY ACID ABSORPTION IN THE SMALL INTESTINE” (SYMRISE AG, priority 2016, published 2019).

Tested on: differentiated Caco-2-cells
Assay: Intestinal fatty acid resorption, QBT Fatty Acid Uptake Kit (BODIPY-dodecanoic acid)
Type: cell-based
Conditions: Homo sapiens, fatty acid resorption AUC as percent of the vehicle treated control, 30 min preincubation, fluorescence measured over 1 h; for activity at 1 µM: 1 μM substance; for activity at 100 µM: 100 μM substance
Excerpt: The ability of modulating the fatty acid resorption/absorption (as described in the scope of the present invention) of a substance or substance mixture can be determined or, respectively, evaluated e.g. according to the method described herein, by using Caco-2-cells (s. also the example section of the present text). Preferably, in the scope of the present text it is to be assumed that substances reducing or, respectively, inhibiting the fatty acid resorption (preferably when performing the method described herein, s. example section) are also suitable for the uses or, respectively, applications according to the invention and described herein. Preferably, the human colon cell line Caco-2 (ATCC-number HTB-37) is used, after differentiation to a phenotype related to entereocytes, as cell model for the resorption of free fatty acids into the small intestine. (Caco-2-cells are preferably cultivated at 37° C. and 5% CO2 content with Dulbecco's Modified Eagles Medium (DMEM) with 10% FBS, 2% L-Glutamine and 1% Penicillin/Streptomycin. The differentiation to enterocytes is preferably performed by an 18-days cultivation of the cells after reaching confluence.)
The resorption of free fatty acids in differentiated Caco-2-cells was analysed with the QBT Fatty Acid Uptake Kit (Molecular Devices Corporation, Germany), which uses the fluorescent fatty acid analogue BODIPY-dodecanoic acid. For preparing the assay, the differentiated Caco-2-cells are subjected to a one hour incubation in serum-free medium at standard cell culture conditions of a hunger phase. Subsequently, the test substances were added at 1 or 100 μM, diluted in Hank's balanced salt solution (HBSS of Lonza, Biozym-order number 882010)-buffer, treated with 20 mM HEPES (diluted from a 1M solution of Gibco, Thermo Fisher-order number 15630056) (in the following described as HBSS/HEPES-buffer). Controls were only treated with HBSS/HEPES-buffer. After a 30 minute preincubation at 37° C., the fluorescent fatty acid analogue was added, which was diluted in HBSS/HEPES-buffer (supplemented with 0.2% fatty acid free BSA [Sigma Aldrich, Germany]). The fluorescence signals were measured after excitation with 485 nm at an emission wavelength of 515 nm during a time of 1 h in a microtiter plate-reader (Synergy; BioTek, Germany). Starting from a time-signal-intensity curve resulting from the measurement, the area under the curve (AUC) was calculated to determine the cellular fatty acid resorption after treatment with the substances. The results obtained thereby are indicated as percent related to the control treatment (s. table 1).
Table 1: Results of the measurement of the inhibition of the fatty acid resorption in Caco-2-cells. The calculated area under the curve (AUC) is shown for tests at each 1 and 100 μM substance used (as percent of the vehicle treated control).
With the test for measurement shown in example 2, in total 25 compounds of formula (I) (as described herein) were measured for their inhibitory activity regarding the fatty acid resorption in Caco-2-cells for each two concentrations (1 and 100 μM) in triple determination. The obtained activity data was subsequently used for a structure-effect-analysis by using the software-package StarDrop (Optibrium Ltd) and Vortex (Dotmatics Ltd.). Thereby, an R-group analysis with the basic structure according to formula (II) was performed.

SMILES: CCC(C)OC(=O)Cc1ccc(O)c(OC)c1 (stereo not drawn) [Compound 8, sec-Butyl-2-(4-hydroxy-3-methoxy-phenyl)acetate]
- activity at 1 µM: 92%
- activity at 100 µM: 61.9%

SMILES: CCCCCCOC(=O)Cc1ccc(O)c(OC)c1 [Compound 20, Hexyl-2-(4-hydroxy-3-methoxy-phenyl)acetate]
- activity at 1 µM: 102%
- activity at 100 µM: 91.4%

SMILES: COc1cc(CC(=O)OC(C)C)ccc1O [Compound 7, Isopropyl-2-(4-hydroxy-3-methoxy-phenyl)acetate]
- activity at 1 µM: 91.6%
- activity at 100 µM: 61.6%

SMILES: CC/C=C\CCOC(=O)Cc1ccc(O)c(OC)c1 [Compound 6, [(Z)-Hex-3-enyl]-2-(4-hydroxy-3-methoxy-phenyl)acetate]
- activity at 1 µM: 99.9%
- activity at 100 µM: 90.4%

SMILES: CCC(C)COC(=O)Cc1ccc(O)c(OC)c1 (stereo not drawn) [Compound 11, 2-Methylbutyl-2-(4-hydroxy-3-methoxy-phenyl)acetate]
- activity at 1 µM: 99%
- activity at 100 µM: 79%

SMILES: CCCCCOC(=O)Cc1ccc(O)c(OC)c1 [Compound 19, Pentyl-2-(4-hydroxy-3-methoxy-phenyl)acetate]
- activity at 1 µM: 101%
- activity at 100 µM: 92.9%

SMILES: CCOC(=O)Cc1ccc(O)c(OC)c1 [Compound 16, Ethyl-2-(4-hydroxy-3-methoxy-phenyl)acetate]
- activity at 1 µM: 105%
- activity at 100 µM: 93.8%

SMILES: COc1cc(CC(=O)OCCC(C)C)ccc1O [Compound 10, Isopentyl-2-(4-hydroxy-3-methoxy-phenyl)acetate]
- activity at 1 µM: 99.8%
- activity at 100 µM: 82.7%

SMILES: CCCOC(=O)Cc1ccc(O)c(OC)c1 [Compound 17, Propyl-2-(4-hydroxy-3-methoxy-phenyl)acetate]
- activity at 1 µM: 101%
- activity at 100 µM: 89.7%

SMILES: COc1cc(CC(=O)OCCc2ccccc2)ccc1O [Compound 1, 2-Phenylethyl-2-(4-hydroxy-3-methoxy-phenyl)acetate]
- activity at 1 µM: 103%
- activity at 100 µM: 103%

SMILES: COc1cc(CC(=O)OCC(C)C)ccc1O [Compound 9, Isobutyl-2-(4-hydroxy-3-methoxy-phenyl)acetate]
- activity at 1 µM: 100%
- activity at 100 µM: 68%

SMILES: CCCCOC(=O)Cc1ccc(O)c(OC)c1 [Compound 18, Butyl-2-(4-hydroxy-3-methoxy-phenyl)acetate]
- activity at 1 µM: 102%
- activity at 100 µM: 90.7%

SMILES: COc1cc(CC(=O)O[C@@H]2C[C@H](C)CC[C@H]2C(C)C)ccc1O [Compound 15, (2-Isopropyl-5-methyl-cyclohexyl)-2-(4-hydroxy-3-methoxy-phenyl)acetate]
- activity at 1 µM: 95.5%
- activity at 100 µM: 58.1%

SMILES: CCCC(CC)OC(=O)Cc1ccc(O)c(OC)c1 (stereo not drawn) [Compound 3, 1-Ethylbutyl-2-(4-hydroxy-3-methoxy-phenyl)acetate]
- activity at 1 µM: 87.1%
- activity at 100 µM: 62.5%

SMILES: CCC/C=C/COC(=O)Cc1ccc(O)c(OC)c1 [Compound 5, [(E)-Hex-2-enyl]-2-(4-hydroxy-3-methoxy-phenyl)acetate]
- activity at 1 µM: 101%
- activity at 100 µM: 96.5%

SMILES: COc1cc(CC(=O)OCC=C(C)C)ccc1O [Compound 4, 3-Methylbut-2-enyl-2-(4-hydroxy-3-methoxy-phenyl)acetate]
- activity at 1 µM: 101%
- activity at 100 µM: 80.9%

SMILES: CCCCCCCOC(=O)Cc1ccc(O)c(OC)c1 [Compound 13, Heptyl-2-(4-hydroxy-3-methoxy-phenyl)acetate]
- activity at 1 µM: 103%
- activity at 100 µM: 92.7%

SMILES: COc1cc(CC(=O)OC/C=C/c2ccccc2)ccc1O [Compound 2, [(E)-Cinnamyl]-2-(4-hydroxy-3-methoxy-phenyl)acetate]
- activity at 1 µM: 97.6%
- activity at 100 µM: 94.6%

SMILES: CCCCCC(C)OC(=O)Cc1ccc(O)c(OC)c1 (stereo not drawn) [Compound 14, 1-Methyl hexyl-2-(4-hydroxy-3-methoxy-phenyl)acetate]
- activity at 1 µM: 93.4%
- activity at 100 µM: 67.5%

SMILES: CCCCC(C)OC(=O)Cc1ccc(O)c(OC)c1 (stereo not drawn) [Compound 12, 1-Methylpentyl-2-(4-hydroxy-3-methoxy-phenyl)acetate]
- activity at 1 µM: 89.5%
- activity at 100 µM: 53.3%

SMILES: CCC(CC)COC(=O)Cc1ccc(O)c(OC)c1 [Compound 23, 2-Ethylbutyl-2-(4-hydroxy-3-methoxy-phenyl)acetate]
- activity at 1 µM: 99.7%
- activity at 100 µM: 62.1%
